# Reference: the supplement of paper PMC6045584
# ± gives the standard deviation of the averaged measurements.
# Compound: CN(C)CC[C@H](CSc1ccccc1)Nc1ccc(S(=O)(=O)NC(=O)c2ccc(N3CCN(Cc4ccccc4-c4ccc(Cl)cc4)CC3)cc2)cc1[N+](=O)[O-] [ABT-737]
# Assay: surviving fraction relative to DMSO-only wells; higher = less growth inhibition
# Conditions: 50 nM; exposure time: 5 days
# How it was run: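 Tumour cell lines were seeded in log phase at 250–500 cells per well into 384-well plates. Starting 24 hours later, inhibitors were present continuously for five days at 0.5, 1, 5, 10, 50, 100, 500 and 1000 nM. Surviving fraction, from CellTiter-Glo luminescence, is normalised to the median of DMSO-only wells. Three screens per line were required, with replicate Pearson r >0.7 and median Z' >0.3 for a line to be kept.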
row,Test System,surviving fraction
1,SUM149.B1*.S BREAST,1.12 ± 0.057
2,93VU HEADNECK,1.23 ± 0.069
3,LM7 BONE,1.08 ± 0.061
4,143B BONE,1.13 ± 0.054
5,SUM159 BREAST,1.095 ± 0.006
6,SUM149 BREAST,0.952 ± 0.058
7,MDAMB361 BREAST,0.871 ± 0.032
8,SAOS2 BONE,1.27 ± 0.061
9,ASKA SYNOVIAL,1.1 ± 0.05
10,HCC1395 BREAST,1.19 ± 0.024
11,HCC1954 BREAST,0.878 ± 0.17
12,CME SYNOVIAL,1.27 ± 0.23
13,VCAP PROSTATE,1.17 ± 0.078
14,YAMATO SYNOVIAL,1.33 ± 0.19
15,HCC202 BREAST,1.1 ± 0.16
16,HELA CERVIX,1.14 ± 0.085
17,SG27 HEADNECK,1.15 ± 0.11
18,CAL72 BONE,1.11 ± 0.14
19,MDAMB134 BREAST,0.908 ± 0.096
20,C33A CERVIX,1.02 ± 0.14

row,Test System,surviving fraction
1,SKBR3 BREAST,0.976 ± 0.071
2,MHM BONE,1.07 ± 0.034
3,VP229 BREAST,1.22 ± 0.11
4,SYO1 SYNOVIAL,1.04 ± 0.08
5,ZR751 BREAST,1.07 ± 0.071
6,KPD BONE,1.07 ± 0.017
7,SIHA CERVIX,1.14 ± 0.056
8,DU4475 BREAST,0.797 ± 0.13
9,BT549 BREAST,1.12 ± 0.029
10,COLO320DM LARGE INTESTINE,1.19 ± 0.083
11,T47D BREAST,1.03 ± 0.2
12,H23 LUNG,1.07 ± 0.067
13,NCIH441 LUNG,1.11 ± 0.045
14,HCT15 LARGE INTESTINE,1.1 ± 0.073
15,SCC90 HEADNECK,1.09 ± 0.046
16,MDAMB453 BREAST,1.09 ± 0.036
17,MG63 BONE,1.11 ± 0.033
18,A549 LUNG,1.07 ± 0.039
19,MDAMB468 BREAST,1.1 ± 0.045

# Same assay, conditions: 100 nM; exposure time: 5 days
row,Test System,surviving fraction
1,SUM149.B1*.S BREAST,1.11 ± 0.069
2,93VU HEADNECK,1.17 ± 0.09
3,LM7 BONE,1.13 ± 0.057
4,143B BONE,1.115 ± 0.0057
5,SUM159 BREAST,1.09 ± 0.021
6,SUM149 BREAST,1.07 ± 0.075
7,MDAMB361 BREAST,0.909 ± 0.085
8,SAOS2 BONE,1.13 ± 0.059
9,ASKA SYNOVIAL,1.11 ± 0.076
10,HCC1395 BREAST,1.32 ± 0.033
11,HCC1954 BREAST,0.917 ± 0.26
12,CME SYNOVIAL,1.42 ± 0.14
13,VCAP PROSTATE,1.13 ± 0.19
14,YAMATO SYNOVIAL,1.38 ± 0.029
15,HCC202 BREAST,1.31 ± 0.17
16,HELA CERVIX,1.11 ± 0.084
17,SG27 HEADNECK,1.08 ± 0.13
18,CAL72 BONE,1.06 ± 0.13
19,MDAMB134 BREAST,0.914 ± 0.063
20,C33A CERVIX,1.1 ± 0.09

row,Test System,surviving fraction
1,SKBR3 BREAST,1.15 ± 0.09
2,MHM BONE,1.15 ± 0.013
3,VP229 BREAST,1.17 ± 0.11
4,SYO1 SYNOVIAL,0.984 ± 0.048
5,ZR751 BREAST,1.03 ± 0.076
6,KPD BONE,1.12 ± 0.21
7,SIHA CERVIX,1.2 ± 0.087
8,DU4475 BREAST,0.715 ± 0.012
9,BT549 BREAST,0.771 ± 0.095
10,COLO320DM LARGE INTESTINE,1.12 ± 0.03
11,T47D BREAST,1.089 ± 0.0036
12,H23 LUNG,1.1 ± 0.087
13,NCIH441 LUNG,1.12 ± 0.077
14,HCT15 LARGE INTESTINE,1.08 ± 0.094
15,SCC90 HEADNECK,1.11 ± 0.097
16,MDAMB453 BREAST,1.1 ± 0.055
17,MG63 BONE,1.09 ± 0.058
18,A549 LUNG,1.09 ± 0.039
19,MDAMB468 BREAST,1.11 ± 0.11
